US8759339B2, “Pyrrolo[2,1-c][1,4]naphthodiazepine linked piperazine compounds and a process for the preparation thereof” (Council of Scientific & Industrial Research, priority 2011, dated 2014)
Like-named read-outs stand apart in the source and are kept apart here.

Key:
[1] = tested on: HEPG2 liver cancer cell line; assay: In vitro anticancer activity, MTT assay; type: cell-based, human; settings: for in-vitro cytotoxicity in liver cancer cell line (HEPG2): result in words
Description: (§1) In vitro biological activity studies were carried out at the pharmacology division, IICT, Hyderabad. The compounds were evaluated for in vitro anticancer activity against eight tumour cell lines derived from […] cancer types (breast, lung, liver, skeletal, kidney, prostrate, small intestine) as shown in Table 2. For each compound, dose response curves for each cell line were measured at a minimum of five concentrations at 10 fold dilutions. A protocol of 48 h continuous drug exposure was used and a MTT assay was used to estimate cell viability or growth. The concentration causing 50% inhibition (IC50) compared with the control was calculated. Some of the compounds have been evaluated for their in vitro cytotoxicity in eight cell lines from seven human cancer types. The results are expressed as IC50 determined relative to that of untreated control cells (Table-2).

[2] = tested on: MCF7 breast cancer cell line; assay: In vitro anticancer activity, MTT assay; type: cell-based, human; settings: for IC50: breast cancer cell line, MTT, 48 h continuous drug exposure; for in-vitro cytotoxicity in breast cancer cell line (MCF-7): result in words
Description: as §1

[3] = tested on: A549 lung cancer cell line; assay: In vitro anticancer activity, MTT assay; type: cell-based, human; settings: for in-vitro cytotoxicity in lung cancer cell line (A549): result in words
Description: as §1

[4] = tested on: NCIH460 large cell lung cancer cell line; assay: In vitro anticancer activity, MTT assay; type: cell-based, human; settings: for IC50: large cell lung cancer cell line, MTT, 48 h continuous drug exposure; for in-vitro cytotoxicity in large cell lung cancer cell line (NCIH460): result in words
Description: as §1

[5] = tested on: PC-3 prostrate cancer cell line; assay: In vitro anticancer activity, MTT assay; type: cell-based, human; settings: for IC50: prostrate cancer cell line, MTT, 48 h continuous drug exposure; for in-vitro cytotoxicity in prostrate cancer cell line (PC-3): result in words
Description: as §1

L-6 = assay: In vitro anticancer activity, MTT assay; type: cell-based; settings: skeletal cancer cell line; MTT, 48 h continuous drug exposure
Description: as §1

[6] = tested on: COS-1 kidney cancer cell line; assay: In vitro anticancer activity, MTT assay; type: cell-based; settings: for IC50: COS-1, range over the listed compounds, exposure period of at least 48 hrs, read-out: IC50 against kidney cancer cell lines; for in-vitro cytotoxicity in kidney cancer cell line (COS-1): result in words
Description: as §1

[7] = tested on: IEC-6 small intestine cell line; assay: In vitro anticancer activity, MTT assay; type: cell-based; settings: for in-vitro cytotoxicity in small intestine cancer cell line (IEC-6): result in words
Description: as §1

[8] = tested on: L-6 skeletal cancer cell line; assay: In vitro anticancer activity, MTT assay; type: cell-based; settings: result in words
Description: as §1

calf thymus DNA (CT-DNA) = assay: Thermal denaturation studies with duplex-form calf thymus DNA; type: binding; settings: [PND]/[DNA] molar ratio 1:5, CT-DNA 100 μM, ligand 20 μM, aqueous sodium phosphate buffer pH 7; for ΔTm after incubation at 37° C. for 0 hr: 0 hr at 37° C.; for ΔTm after incubation at 37° C. for 18 hrs: 18 hrs at 37° C.
Description: Compounds have been subjected to thermal denaturation studies with duplex-form calf thymus DNA (CT-DNA) using an modification of a reported procedure (Newman, M. S. Carcinog-compr. Surv. 1976, 1, 203; (b) Hecht, S. S.; Loy, M.; Hoffman, Carcinog-compr. Surv. 1976, 1, 325). Working solutions in aqueous buffer (10 mM NaH2PO4/Na2HPO4, 1 mM Na2EDTA, pH 7.00+0.01) containing CT-DNA (100 μm in phosphate) and the PND (pyrrolo naphtha diazepine) (20 μm) have been prepared by addition of concentrated PND (pyrrolo naphtha diazepine) solutions in DMSO to obtain a fixed [PND]/[DNA] molar ratio of 1:5. The DNA-PND (pyrrolo naphtha diazepine) solutions have been incubated at 37° C. for 0 and 18 h prior to analysis. Samples have been monitored at 260 nm using a Beckman DU-800 spectrophotometer fitted with high performance temperature controller, and heated at 1° C. min in the 40-110° C. range. DNA helix→coil transition temperatures (Tm) have been obtained from the maxima in the d(A260)/dT derivative plots. Drug-induced alterations in DNA melting behavior are given by: ΔTm=Tm(DNA+PND)−Tm(DNA alone), where the Tm value for the PND-free CT-DNA is 69.1±0.01.
The DNA binding activity for these novel substituted piperazine linked pyrrolo naphtho diazepine hybrids has been examined by thermal denaturation studies using calf thymus (CT) DNA. […] The data for some of the compounds are included in Table 1 for comparison.

[9] = In vitro anticancer activity, MTT assay; type: cell-based; settings: kidney cancer cell line, MTT, 48 h continuous drug exposure
Description: as §1

[10] = Homo sapiens, HepG2, liver cancer cell line, MTT, 48 h continuous drug exposure, read-out: IC50 HEPG2
[11] = Homo sapiens, HepG2, range over the listed compounds, exposure period of at least 48 hrs, read-out: IC50 against liver cancer cell lines
[12] = Homo sapiens, A549, lung cancer cell line, MTT, 48 h continuous drug exposure, read-out: IC50 A549
[13] = Homo sapiens, A549, range over the listed compounds, exposure period of at least 48 hrs, read-out: IC50 against lung cancer cell lines
[14] = IEC-6, range over the listed compounds, exposure period of at least 48 hrs, read-out: IC50 against small intestine cancer cell lines
[15] = IEC-6, small intestine cell line, MTT, 48 h continuous drug exposure, read-out: IC50 IEC-6
[16] = liver cancer cell line, MTT, 48 h continuous drug exposure, read-out: IC50 HEPG2
[17] = lung cancer cell line, MTT, 48 h continuous drug exposure, read-out: IC50 A549
[18] = small intestine cell line, MTT, 48 h continuous drug exposure, read-out: IC50 IEC-6

Row | Structure (SMILES) | IC50 [1, 10] [µM] | IC50 [1, 11] [µM] | in-vitro cytotoxicity in liver cancer cell line (HEPG2) [1] | IC50 ([2]; Homo sapiens, MCF7) [µM] | in-vitro cytotoxicity in breast cancer cell line (MCF-7) [2] | IC50 [3, 12] [µM] | IC50 [3, 13] [µM] | in-vitro cytotoxicity in lung cancer cell line (A549) [3] | IC50 ([4]; Homo sapiens, NCI-H460) [µM] | in-vitro cytotoxicity in large cell lung cancer cell line (NCIH460) [4] | IC50 ([5]; Homo sapiens) [µM] | in-vitro cytotoxicity in prostrate cancer cell line (PC-3) [5] | IC50 (L-6) [µM] | IC50 [6] [µM] | IC50 [7, 14] [µM] | IC50 [7, 15] [µM] | in-vitro cytotoxicity in small intestine cancer cell line (IEC-6) [7] | in-vitro cytotoxicity in skeletal cancer cell line (L-6) [8] | ΔTm after incubation at 37° C. for 0 hr (calf thymus DNA (CT-DNA)) [°C] | ΔTm after incubation at 37° C. for 18 hrs (calf thymus DNA (CT-DNA)) [°C] | further results
1 | COc1cc2cc3c(cc2cc1OCCN1CCN(c2ncccn2)CC1)C(=O)N1CCC[C@H]1C=N3 [24a, 9-Methoxy-8-(2-[4-(2-pyrimidinyl)piperazino]ethoxy)-(13aS)-1,2,3,13a-tetrahydro-5H-pyrrolo[2,1-c][1,4]naphthodiazepin-5-one] | 1.04 | 0.02 to 7.32 | exhibiting in-vitro cytotoxicity | 1.97 | exhibiting in-vitro cytotoxicity | 11.9 | 0.02 to 11.9 | exhibiting in-vitro cytotoxicity | 0.002 | exhibiting in-vitro cytotoxicity | 0.01 | exhibiting in-vitro cytotoxicity | 2.21 | 0.8 to 4.32 | 0.01 to 5.84 | 0.2 | exhibiting in-vitro cytotoxicity | exhibiting in-vitro cytotoxicity | 4.9 | 6.5 | 
2 | COc1cc2cc3c(cc2cc1OCCN1CCN(c2ccccn2)CC1)C(=O)N1CCC[C@H]1C=N3 [23a, 9-Methoxy-8-(2-[4-(2-pyridyl)piperazino]ethoxy)-(13aS)-1,2,3,13a-tetrahydro-5H-pyrrolo[2,1-c][1,4]naphthodiazepin-5-one] | 0.04 | 0.02 to 7.32 | exhibiting in-vitro cytotoxicity | 0.02 | exhibiting in-vitro cytotoxicity | 1.99 | 0.02 to 11.9 | exhibiting in-vitro cytotoxicity | 0.11 | exhibiting in-vitro cytotoxicity | 0.1 | exhibiting in-vitro cytotoxicity | 0.74 | 0.8 to 4.32 | 0.01 to 5.84 | 0.01 | exhibiting in-vitro cytotoxicity | exhibiting in-vitro cytotoxicity | 5.0 | 6.8 | in-vitro cytotoxicity in kidney cancer cell line (COS-1) [6]: exhibiting in-vitro cytotoxicity; IC50 ([9]; COS-1): 4.32 µM
3 | COc1cc2cc3c(cc2cc1OCCN1CCN(c2ccccc2)CC1)N=C[C@@H]1CCCN1C3=O [8a, 8-Methoxy-9-[2-(4-phenylpiperazino)ethoxy]-(13aS)-1,2,3,13a-tetrahydro-5H-pyrrolo[2,1-c][1,4]naphthodiazepin-5-one] |  |  | exhibiting in-vitro cytotoxicity |  | exhibiting in-vitro cytotoxicity |  |  | exhibiting in-vitro cytotoxicity |  | exhibiting in-vitro cytotoxicity |  | exhibiting in-vitro cytotoxicity | 1.01 |  |  |  | exhibiting in-vitro cytotoxicity | exhibiting in-vitro cytotoxicity | 5.1 | 6.9 | IC50 [1, 16]: 0.47 µM; IC50 [2]: 1.5 µM; IC50 [3, 17]: 7.42 µM; IC50 [4]: 0.43 µM; IC50 [5]: 1.6 µM; in-vitro cytotoxicity in kidney cancer cell line (COS-1) [6]: exhibiting in-vitro cytotoxicity; IC50 [7, 18]: 0.14 µM; IC50 ([9]; read-out: IC50 COS-1): 6.39 µM
4 | COc1cc2c(cc1O)N=CC1CCCN1C2=O (centres unmarked) [DC-81, reference compound] |  |  |  |  |  |  |  |  |  |  |  |  | 27.6 |  |  |  |  |  | 0.3 | 0.7 | IC50 [1, 16]: 5.27 µM; IC50 [2]: 12.6 µM; IC50 [3, 17]: 17.5 µM; IC50 [4]: 8.93 µM; IC50 [5]: 14.2 µM; IC50 [7, 18]: 15.4 µM; IC50 ([9]; read-out: IC50 COS-1): 32.9 µM
5 | COc1cc2cc3c(cc2cc1OCCN1CCN(c2ccc(F)cc2)CC1)C(=O)N1CCC[C@H]1C=N3 [20a, 9-Methoxy-8-(2-[4-(4-fluorophenyl)piperazino]ethoxy)-(13aS)-1,2,3,13a-tetrahydro-5H-pyrrolo[2,1-c][1,4]naphthodiazepin-5-one] | 4.03 | 0.02 to 7.32 | exhibiting in-vitro cytotoxicity | 3.99 | exhibiting in-vitro cytotoxicity | 10.6 | 0.02 to 11.9 | exhibiting in-vitro cytotoxicity | 0.99 | exhibiting in-vitro cytotoxicity | 4.37 | exhibiting in-vitro cytotoxicity | 6.36 | 0.8 to 4.32 | 0.01 to 5.84 | 5.84 | exhibiting in-vitro cytotoxicity | exhibiting in-vitro cytotoxicity | 5.9 | 7.0 | 
6 | COc1cc2cc3c(cc2cc1OCCN1CCN(C(C)=O)CC1)N=C[C@@H]1CCCN1C3=O [5a, 8-Methoxy-9-[2-(4-acetylpiperazino)ethoxy]-(13aS)-1,2,3,13a-tetrahydro-5H-pyrrolo[2,1-c][1,4]naphthodiazepin-5-one] |  |  | exhibiting in-vitro cytotoxicity |  | exhibiting in-vitro cytotoxicity |  |  | exhibiting in-vitro cytotoxicity |  | exhibiting in-vitro cytotoxicity |  | exhibiting in-vitro cytotoxicity | 2.66 |  |  |  |  | exhibiting in-vitro cytotoxicity | 5.5 | 7.1 | IC50 [1, 16]: 7.32 µM; IC50 [2]: 2.88 µM; IC50 [3, 17]: 0.66 µM; IC50 [4]: 1.68 µM; IC50 [5]: 13.5 µM
